Assay results: ChEMBL document CHEMBL4145634, “Discovery of Janus Kinase 2 (JAK2) and Histone Deacetylase (HDAC) Dual Inhibitors as a Novel Strategy for the Combinational Treatment of Leukemia and Invasive Fungal Infections” (J Med Chem, 2018)
Converted amounts (≈) assume the structure as drawn. The source made the active and inactive calls. The calls are words filed in the database; no cut-off is given here.

Key:
[1] = biological target: Histone deacetylase 3/NCoR1 (Homo sapiens, UniProt O15379); assay: Inhibition of human recombinant HDAC3/GST-tagged NCOR1 (397 to 503 residues) co-expressed in insect cells using (Ac-Leu-Gly-Lys(Ac)-AMC as substrate preincubated for 5 mins followed by substrate addition and measured after 30 mins by fluorescence assay
[2] = biological target: Histone deacetylase 2 (Homo sapiens, UniProt Q92769); assay: Inhibition of recombinant HDAC2 (unknown origin) using (Ac-Leu-Gly-Lys(Ac)-AMC as substrate preincubated for 5 mins followed by substrate addition and measured after 30 mins by fluorescence assay
[3] = test system: HEL; assay: Antiproliferative activity against human HEL cells after 48 hrs by CCK-8 assay; type: functional, cell-based
[4] = test system: HEL; assay: Induction of apoptosis in human HEL cells after 48 hrs by Annexin-V-FITC/propidium iodide staining based flow cytometry; type: functional, cell-based
[5] = biological target: T1, Protein deacetylase HDAC6 (Homo sapiens, UniProt Q9UBN7); assay: Inhibition of full length human recombinant HDAC6 expressed in Baculovirus infected Sf9 cells using (Ac-Leu-Gly-Lys(Ac)-AMC as substrate preincubated for 5 mins followed by substrate addition and measured after 30 mins by fluorescence assay
T1 sequence (Q9UBN7 whole entry): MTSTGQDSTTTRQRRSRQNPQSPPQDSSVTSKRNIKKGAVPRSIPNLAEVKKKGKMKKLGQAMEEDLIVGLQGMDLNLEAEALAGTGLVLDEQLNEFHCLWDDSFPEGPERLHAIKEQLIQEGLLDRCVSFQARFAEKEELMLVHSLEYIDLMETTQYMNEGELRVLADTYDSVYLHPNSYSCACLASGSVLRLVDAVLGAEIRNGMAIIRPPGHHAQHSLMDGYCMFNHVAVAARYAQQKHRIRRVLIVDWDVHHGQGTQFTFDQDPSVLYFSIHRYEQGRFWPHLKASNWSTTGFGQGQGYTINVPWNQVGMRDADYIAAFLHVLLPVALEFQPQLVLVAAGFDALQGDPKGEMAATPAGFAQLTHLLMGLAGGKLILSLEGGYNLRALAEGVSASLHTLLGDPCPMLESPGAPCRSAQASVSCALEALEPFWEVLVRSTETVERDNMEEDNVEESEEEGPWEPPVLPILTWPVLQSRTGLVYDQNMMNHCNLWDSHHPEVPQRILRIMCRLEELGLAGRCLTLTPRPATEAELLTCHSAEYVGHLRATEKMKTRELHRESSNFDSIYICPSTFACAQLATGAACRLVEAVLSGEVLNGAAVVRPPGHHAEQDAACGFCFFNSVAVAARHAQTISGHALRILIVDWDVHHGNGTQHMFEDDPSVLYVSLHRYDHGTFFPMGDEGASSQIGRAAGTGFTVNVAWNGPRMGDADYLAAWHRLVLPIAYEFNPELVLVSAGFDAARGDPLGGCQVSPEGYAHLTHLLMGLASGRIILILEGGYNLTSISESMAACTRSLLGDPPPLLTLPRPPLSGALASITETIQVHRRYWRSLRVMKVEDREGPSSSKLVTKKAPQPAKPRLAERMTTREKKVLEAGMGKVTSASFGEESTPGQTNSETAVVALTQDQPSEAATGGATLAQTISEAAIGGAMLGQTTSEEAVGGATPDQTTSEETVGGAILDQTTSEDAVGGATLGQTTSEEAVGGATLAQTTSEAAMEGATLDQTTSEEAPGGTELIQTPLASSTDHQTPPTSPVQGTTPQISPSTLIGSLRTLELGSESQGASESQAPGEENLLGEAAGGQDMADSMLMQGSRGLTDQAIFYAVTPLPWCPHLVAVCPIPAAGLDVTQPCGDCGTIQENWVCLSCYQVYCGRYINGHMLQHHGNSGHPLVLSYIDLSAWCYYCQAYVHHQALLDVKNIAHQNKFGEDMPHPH

[6] = biological target: T2, Histone deacetylase 8 (Homo sapiens, UniProt Q9BY41); assay: Inhibition of full length recombinant C-terminal His tagged human HDAC8 expressed in Baculovirus infected Sf9 cells using Ac-Leu-Gly-Lys(Tfa)-AMC as substrate preincubated for 5 mins followed by substrate addition and measured after 30 mins by fluorescence assay
T2 sequence (Q9BY41 whole entry): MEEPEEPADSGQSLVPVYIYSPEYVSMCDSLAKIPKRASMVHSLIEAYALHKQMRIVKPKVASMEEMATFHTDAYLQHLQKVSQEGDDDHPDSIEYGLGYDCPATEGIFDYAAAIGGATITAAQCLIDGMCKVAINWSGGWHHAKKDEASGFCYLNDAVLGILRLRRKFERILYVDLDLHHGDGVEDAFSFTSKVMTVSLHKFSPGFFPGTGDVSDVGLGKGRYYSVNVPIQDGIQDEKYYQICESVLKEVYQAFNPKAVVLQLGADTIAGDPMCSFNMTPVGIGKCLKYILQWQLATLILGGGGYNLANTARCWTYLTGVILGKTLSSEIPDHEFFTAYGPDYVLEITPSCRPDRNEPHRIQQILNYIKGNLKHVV

[7] = test system: Candida albicans; assay: microbe, parasite or virus in culture; type: functional; details: Candida albicans, 0304103, 48 h
Description: Antifungal activity against FLC resistant Candida albicans 0304103 after 48 hrs by checkerboard microdilution method

[8] = test system: Candida albicans; assay: microbe, parasite or virus in culture; type: functional; details: Candida albicans, 0304103, 48 h; remark: listed apart in the source
Description: Antifungal activity against FLC resistant Candida albicans 0304103 assessed as fluconazol MIC50 after 48 hrs by checkerboard microdilution method

[9] = test system: Candida albicans; assay: microbe, parasite or virus in culture; type: functional; details: Candida albicans, 0304103, 48 h; remark: listed apart in the source
Description: Antifungal activity against FLC resistant Candida albicans 0304103 after 48 hrs in presence of fluconazol by checkerboard microdilution method

[10] = test system: Candida albicans; assay: microbe, parasite or virus in culture; type: functional; details: Candida albicans, 0710922, 48 h
Description: Antifungal activity against FLC resistant Candida albicans 0710922 after 48 hrs by checkerboard microdilution method

[11] = test system: Candida albicans; assay: Synergistic antifungal activity against FLC resistant Candida albicans 0304103 assessed as FIC index after 48 hrs by checkerboard microdilution method; type: functional
[12] = test system: Candida albicans; assay: Synergistic antifungal activity against FLC resistant Candida albicans 0710922 assessed as FIC index after 48 hrs by checkerboard microdilution method; type: functional
[13] = test system: Candida albicans; assay: Antifungal activity against FLC resistant Candida albicans 0304103 at 32 ug/ml up to 24 hrs by checkerboard microdilution method; type: functional, organism-based
[14] = test system: Candida albicans; assay: Antifungal activity against FLC resistant Candida albicans 0304103 at 32 ug/ml up to 24 hrs in presence of fluconazol by checkerboard microdilution method; type: functional, organism-based
[15] = test system: Candida albicans; assay: Antibiofilm activity against FLC resistant Candida albicans 0304103 assessed as inhibition of biofilm formation pre-incubated with 64 ug/ml FLC for 90 mins followed by further incubation with compound for 24 hrs by XTT reduction assay; type: functional, organism-based
[16] = biological target: Histone deacetylase (Homo sapiens) (UniProt Q13547+O15379+Q9UBN7+Q92769+Q9UQL6+Q8WUI4+Q9BY41+Q96DB2+P56524+Q9UKV0+Q969S8); assay: Inhibition of HDAC in human HEL cells assessed as increased in histone H4 acetylation after 24 hrs by Western blot analysis; type: cell-based
[17] = test system: Mus musculus; assay: Toxicity in BALB/C nude mouse xenografted with human HEL cells at 10 mg/kg, ip bid treated for 21 consecutive days; type: organism-based; details: in vivo
[18] = test system: Mus musculus; assay: Toxicity in BALB/C nude mouse xenografted with human HEL cells assessed as reduction in body weight at 10 mg/kg, ip bid treated for 21 consecutive days; type: organism-based; details: in vivo
[19] = Clearance in ICR mouse liver microsomes at 1 uM measured up to 45 mins in presence of NADPH by LC-MS/MS analysis; type: ADME, microsome; details: 0.75 h

Histone deacetylase 3/NCoR1, sequence (O15379 whole entry, the tested form may be a part): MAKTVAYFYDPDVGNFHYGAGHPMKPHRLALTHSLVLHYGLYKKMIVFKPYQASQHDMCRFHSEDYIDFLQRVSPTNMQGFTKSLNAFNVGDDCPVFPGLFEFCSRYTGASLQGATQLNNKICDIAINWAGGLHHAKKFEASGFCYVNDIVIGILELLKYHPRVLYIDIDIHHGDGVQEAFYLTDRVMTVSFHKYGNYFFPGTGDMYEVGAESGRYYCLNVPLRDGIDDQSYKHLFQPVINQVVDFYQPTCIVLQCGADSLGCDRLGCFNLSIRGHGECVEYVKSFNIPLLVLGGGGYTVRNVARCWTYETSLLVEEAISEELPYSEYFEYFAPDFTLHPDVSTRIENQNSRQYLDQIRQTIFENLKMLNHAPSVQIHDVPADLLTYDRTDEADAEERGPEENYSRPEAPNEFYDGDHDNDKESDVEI
Histone deacetylase 3/NCoR1, sequence (O75376 whole entry, further chain, the tested form may be a part): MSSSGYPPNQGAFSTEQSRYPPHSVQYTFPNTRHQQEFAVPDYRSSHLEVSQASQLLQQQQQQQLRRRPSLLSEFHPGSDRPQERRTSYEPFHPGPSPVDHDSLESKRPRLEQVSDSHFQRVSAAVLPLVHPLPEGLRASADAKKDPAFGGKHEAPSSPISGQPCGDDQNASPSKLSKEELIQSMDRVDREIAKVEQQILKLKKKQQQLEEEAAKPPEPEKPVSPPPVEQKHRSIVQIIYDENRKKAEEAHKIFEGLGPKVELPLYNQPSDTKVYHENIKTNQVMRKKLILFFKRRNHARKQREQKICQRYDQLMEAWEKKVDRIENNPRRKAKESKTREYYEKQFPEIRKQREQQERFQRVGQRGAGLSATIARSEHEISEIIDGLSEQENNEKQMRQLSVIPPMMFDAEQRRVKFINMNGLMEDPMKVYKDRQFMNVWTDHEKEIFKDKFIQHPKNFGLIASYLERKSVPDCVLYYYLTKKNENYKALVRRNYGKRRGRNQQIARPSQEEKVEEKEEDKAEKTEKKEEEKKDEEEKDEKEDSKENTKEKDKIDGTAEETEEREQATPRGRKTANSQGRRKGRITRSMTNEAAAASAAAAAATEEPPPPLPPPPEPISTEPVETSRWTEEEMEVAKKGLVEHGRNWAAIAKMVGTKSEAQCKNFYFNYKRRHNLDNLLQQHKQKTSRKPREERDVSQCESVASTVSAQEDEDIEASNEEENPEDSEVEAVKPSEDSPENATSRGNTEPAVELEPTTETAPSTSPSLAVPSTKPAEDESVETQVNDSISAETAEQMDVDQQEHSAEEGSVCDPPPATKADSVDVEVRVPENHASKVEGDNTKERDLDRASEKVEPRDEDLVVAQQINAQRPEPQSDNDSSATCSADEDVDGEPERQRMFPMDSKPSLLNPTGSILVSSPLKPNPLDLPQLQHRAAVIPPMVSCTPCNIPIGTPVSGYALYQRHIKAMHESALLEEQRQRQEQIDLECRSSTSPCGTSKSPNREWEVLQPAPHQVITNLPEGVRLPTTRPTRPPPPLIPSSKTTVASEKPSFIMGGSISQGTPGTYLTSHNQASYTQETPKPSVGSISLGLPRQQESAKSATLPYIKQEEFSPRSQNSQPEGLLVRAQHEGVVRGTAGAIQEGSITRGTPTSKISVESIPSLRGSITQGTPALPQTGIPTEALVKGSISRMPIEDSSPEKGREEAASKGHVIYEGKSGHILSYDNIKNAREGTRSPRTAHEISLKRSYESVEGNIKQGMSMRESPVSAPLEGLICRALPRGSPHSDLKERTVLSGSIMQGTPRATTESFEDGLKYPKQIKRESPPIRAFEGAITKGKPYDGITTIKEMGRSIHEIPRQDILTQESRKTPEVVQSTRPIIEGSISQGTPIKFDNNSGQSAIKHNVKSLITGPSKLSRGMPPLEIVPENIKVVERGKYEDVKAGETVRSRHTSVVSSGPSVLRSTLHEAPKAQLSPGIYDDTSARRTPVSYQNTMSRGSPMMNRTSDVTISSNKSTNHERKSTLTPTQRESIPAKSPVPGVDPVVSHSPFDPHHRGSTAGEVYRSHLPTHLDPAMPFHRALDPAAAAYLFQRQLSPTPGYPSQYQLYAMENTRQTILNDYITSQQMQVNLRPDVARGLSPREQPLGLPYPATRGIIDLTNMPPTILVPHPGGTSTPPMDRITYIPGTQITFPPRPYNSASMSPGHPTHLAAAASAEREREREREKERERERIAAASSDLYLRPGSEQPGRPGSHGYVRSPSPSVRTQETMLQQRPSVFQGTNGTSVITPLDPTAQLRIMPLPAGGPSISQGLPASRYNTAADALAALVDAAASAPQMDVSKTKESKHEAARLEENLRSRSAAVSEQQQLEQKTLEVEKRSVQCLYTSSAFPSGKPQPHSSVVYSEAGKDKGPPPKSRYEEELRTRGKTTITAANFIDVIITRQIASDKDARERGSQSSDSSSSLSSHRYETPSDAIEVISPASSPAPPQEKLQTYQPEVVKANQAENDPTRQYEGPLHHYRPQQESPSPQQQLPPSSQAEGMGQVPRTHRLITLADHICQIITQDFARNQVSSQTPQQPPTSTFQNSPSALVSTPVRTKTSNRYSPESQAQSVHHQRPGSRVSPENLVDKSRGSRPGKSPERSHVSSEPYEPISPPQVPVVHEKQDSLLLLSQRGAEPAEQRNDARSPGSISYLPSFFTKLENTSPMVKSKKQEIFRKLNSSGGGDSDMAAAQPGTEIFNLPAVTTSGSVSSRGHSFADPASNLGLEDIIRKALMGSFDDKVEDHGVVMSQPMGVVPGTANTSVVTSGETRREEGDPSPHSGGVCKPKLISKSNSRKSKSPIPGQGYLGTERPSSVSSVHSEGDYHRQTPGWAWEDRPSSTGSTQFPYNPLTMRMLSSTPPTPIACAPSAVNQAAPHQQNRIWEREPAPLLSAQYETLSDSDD
Histone deacetylase 2, sequence (Q92769 whole entry): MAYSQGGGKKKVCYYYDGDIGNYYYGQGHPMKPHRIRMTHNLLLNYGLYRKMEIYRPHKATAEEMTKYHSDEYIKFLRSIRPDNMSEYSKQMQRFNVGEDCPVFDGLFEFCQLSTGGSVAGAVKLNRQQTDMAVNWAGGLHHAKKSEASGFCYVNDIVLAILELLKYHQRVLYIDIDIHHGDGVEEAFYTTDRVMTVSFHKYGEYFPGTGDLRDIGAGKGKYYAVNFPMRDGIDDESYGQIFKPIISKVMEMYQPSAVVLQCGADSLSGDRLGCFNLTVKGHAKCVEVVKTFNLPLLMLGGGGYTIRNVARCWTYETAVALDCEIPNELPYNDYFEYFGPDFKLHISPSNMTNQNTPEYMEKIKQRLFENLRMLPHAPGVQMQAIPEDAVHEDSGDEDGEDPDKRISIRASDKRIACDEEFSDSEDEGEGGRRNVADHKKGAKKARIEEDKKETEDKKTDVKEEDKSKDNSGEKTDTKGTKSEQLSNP

Row | Compound | IC50 [1] [nM] | IC50 [2] [nM] | IC50 [3] [nM] | Activity [4] | IC50 [5] [nM] | IC50 [6] [nM] | MIC50 [7] [µg/mL] | MIC50 [8] [µg/mL] | MIC50 [9] [µg/mL] | MIC50 [10] [µg/mL] | fractional inhibitory concentration index (FICI) [11] | fractional inhibitory concentration index (FICI) [12] | Activity [13] | Activity [14] | inhibition [15] | inhibition [16] | Activity [17] | Activity [18] | CLH [19] [µL/min/mg]
1 | O=C(NO)c1ccc(-c2ccnc(Nc3ccc(N4CCOCC4)cc3)n2)cc1 | 45 | 1700 | 3500 | Dose-dependent effect | 419 | 609 | > 64 | 0.5 (≈ 1.28 µM) | 4 (≈ 10.2 µM) | > 64 | 0.07 | 0.27 | inactive | Active | Dose-dependent effect | Dose-dependent effect | Non-Toxic | Non-Toxic | 83.8
2 | CS(=O)(=O)Nc1ccc(-c2ccnc(Nc3ccc(N4CCC(C(=O)Nc5ccc(/C=C/C(=O)NO)cc5)CC4)cc3)n2)cc1 | 234 | 7470 | 340 | Dose-dependent effect | 46 | 6070 | > 64 | 0.5 (≈ 0.797 µM) | 4 (≈ 6.37 µM) | > 64 | 0.07 | 0.14 | inactive | Active | Dose-dependent effect | Dose-dependent effect | Non-Toxic | Non-Toxic | 71.6
3 | CS(=O)(=O)Nc1ccc(-c2ccnc(Nc3ccc(N4CCC(C(=O)NCCCCCCCC(=O)NO)CC4)cc3)n2)cc1 | 17 | 132 | 1800 | Dose-dependent effect | 74 | 572 | > 64 | 0.25 (≈ 0.401 µM) | 8 (≈ 12.8 µM) | > 64 | 0.13 | 0.26 | inactive | Active | Dose-dependent effect | Dose-dependent effect | Non-Toxic | Non-Toxic | 88.1
